Assay results as given in PubChem BioAssay (NCI).
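Interpolation was linear, between the two tested concentrations surrounding the appropriate level; five concentrations were tested over 48 hours in 96-well plates. The concentration for full growth arrest is given as TGI.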

Columns and labels:
Experiment in all cases: NCI-60 cell line screen, 48 h
HCT-15 colon = test system: HCT-15 colon
HS 578T breast = test system: HS 578T breast
ACHN renal = test system: ACHN renal
MALME-3M melanoma = test system: MALME-3M melanoma
HOP-62 NSCLC = test system: HOP-62 NSCLC
OVCAR-8 ovarian = test system: OVCAR-8 ovarian
TK-10 renal = test system: TK-10 renal
M14 melanoma = test system: M14 melanoma
HCT-116 colon = test system: HCT-116 colon
U251 CNS = test system: U251 CNS
LOX IMVI melanoma = test system: LOX IMVI melanoma
NCI/ADR-RES ovarian = test system: NCI/ADR-RES ovarian
SN12C renal = test system: SN12C renal
A549 NSCLC = test system: A549 NSCLC
SR leukemia = test system: SR leukemia
MDA-MB-435 = test system: MDA-MB-435
DU-145 prostate = test system: DU-145 prostate
K-562 leukemia = test system: K-562 leukemia
OVCAR-3 ovarian = test system: OVCAR-3 ovarian
UACC-257 melanoma = test system: UACC-257 melanoma
NCI-H522 lung = test system: NCI-H522 lung
SK-MEL-28 melanoma = test system: SK-MEL-28 melanoma
KM12 colon = test system: KM12 colon
SNB-19 CNS = test system: SNB-19 CNS
SF-539 CNS = test system: SF-539 CNS
NCI-H460 lung = test system: NCI-H460 lung
T-47D breast = test system: T-47D breast
MOLT-4 leukemia = test system: MOLT-4 leukemia
HT29 colon = test system: HT29 colon
EKVX NSCLC = test system: EKVX NSCLC
SF-295 CNS = test system: SF-295 CNS
HL-60(TB) leukemia = test system: HL-60(TB) leukemia
NCI-H226 lung = test system: NCI-H226 lung
MCF7 breast = test system: MCF7 breast
UACC-62 melanoma = test system: UACC-62 melanoma
IGROV1 ovarian = test system: IGROV1 ovarian
SK-MEL-2 melanoma = test system: SK-MEL-2 melanoma
MDA-MB-231 breast = test system: MDA-MB-231 breast
SW-620 colon = test system: SW-620 colon
OVCAR-4 ovarian = test system: OVCAR-4 ovarian
786-0 renal = test system: 786-0 renal
SF-268 CNS = test system: SF-268 CNS
OVCAR-5 ovarian = test system: OVCAR-5 ovarian
HCC-2998 colon = test system: HCC-2998 colon
BT-549 breast = test system: BT-549 breast
CAKI-1 renal = test system: CAKI-1 renal
RPMI-8226 leukemia = test system: RPMI-8226 leukemia
UO-31 renal = test system: UO-31 renal
PC-3 prostate = test system: PC-3 prostate
CCRF-CEM leukemia = test system: CCRF-CEM leukemia
SK-MEL-5 melanoma = test system: SK-MEL-5 melanoma
MDA-N = test system: MDA-N
NCI-H23 lung = test system: NCI-H23 lung
SK-OV-3 ovarian = test system: SK-OV-3 ovarian
COLO 205 colon = test system: COLO 205 colon
A498 renal = test system: A498 renal
SNB-75 CNS = test system: SNB-75 CNS
RXF 393 renal = test system: RXF 393 renal
HOP-92 NSCLC = test system: HOP-92 NSCLC

Work on `COC(=O)C1(Cc2ccc3c(c2)CCC3)Cc2ccccc2C1O` (configuration not stated) yielded a TGI (HCT-15 colon) of 50.7 µM, a TGI (HS 578T breast) of 48.1 µM and a TGI (ACHN renal) of 38.3 µM. It also gave a TGI (MALME-3M melanoma) of 37.6 µM, a TGI (HOP-62 NSCLC) of 46.3 µM and a TGI (OVCAR-8 ovarian) of 36 µM. It also gave a TGI (TK-10 renal) of 53.1 µM, a TGI (M14 melanoma) of 34.9 µM and a TGI (HCT-116 colon) of 31.8 µM. The TGI (U251 CNS) was 31.1 µM, the TGI (LOX IMVI melanoma) was 34 µM and the TGI (NCI/ADR-RES ovarian) was 60.1 µM. For the same compound, the TGI (SN12C renal) was 29.2 µM, the TGI (A549 NSCLC) was 49.2 µM and the TGI (SR leukemia) was 75.9 µM. The TGI (MDA-MB-435) was 36.7 µM, the TGI (DU-145 prostate) was > 100 µM and the TGI (K-562 leukemia) was 40.5 µM. The TGI (OVCAR-3 ovarian) was 36.8 µM, the TGI (UACC-257 melanoma) was 31.5 µM and the TGI (NCI-H522 lung) was 30.1 µM. For the same compound, the TGI (SK-MEL-28 melanoma) was 33 µM, the TGI (KM12 colon) was 47.6 µM and the TGI (SNB-19 CNS) was 35.6 µM. The TGI (SF-539 CNS) was 33.1 µM, the TGI (NCI-H460 lung) was 38.1 µM and the TGI (T-47D breast) was > 100 µM. The TGI (MOLT-4 leukemia) was 35.5 µM, the TGI (HT29 colon) was 31.6 µM and the TGI (EKVX NSCLC) was 69.4 µM. The TGI (SF-295 CNS) was 35.2 µM, the TGI (HL-60(TB) leukemia) was > 100 µM and the TGI (NCI-H226 lung) was 36.6 µM. The TGI (MCF7 breast) was 49.6 µM, the TGI (UACC-62 melanoma) was 28.1 µM and the TGI (IGROV1 ovarian) was 51.7 µM. It also gave a TGI (SK-MEL-2 melanoma) of 27.4 µM, a TGI (MDA-MB-231 breast) of 67.4 µM and a TGI (SW-620 colon) of 43.5 µM. The TGI (OVCAR-4 ovarian) was 27.8 µM, the TGI (786-0 renal) was 32.4 µM and the TGI (SF-268 CNS) was 41.6 µM. For the same compound, the TGI (OVCAR-5 ovarian) was 80 µM, the TGI (HCC-2998 colon) was 31.9 µM and the TGI (BT-549 breast) was 35.1 µM. For the same compound, the TGI (CAKI-1 renal) was 52.3 µM, the TGI (RPMI-8226 leukemia) was 80.4 µM and the TGI (UO-31 renal) was 29.2 µM. The TGI (PC-3 prostate) was 29.2 µM, the TGI (CCRF-CEM leukemia) was 47.5 µM and the TGI (SK-MEL-5 melanoma) was 29.8 µM. For the same compound, the TGI (MDA-N) was 13.5 µM, the TGI (NCI-H23 lung) was 45 µM and the TGI (SK-OV-3 ovarian) was 44.2 µM. The TGI (COLO 205 colon) was 33.8 µM and the TGI (A498 renal) was 33.7 µM.

`COc1ccc(CC(N)c2ccc(OC)cc2)cc1` (configuration not stated) was tested, and the TGI (HCT-15 colon) was > 100 µM, the TGI (HS 578T breast) was > 100 µM and the TGI (ACHN renal) was > 100 µM. For the same compound, the TGI (MALME-3M melanoma) was > 100 µM, the TGI (HOP-62 NSCLC) was > 100 µM and the TGI (OVCAR-8 ovarian) was > 100 µM. The TGI (TK-10 renal) was > 100 µM, the TGI (M14 melanoma) was > 100 µM and the TGI (SNB-75 CNS) was > 100 µM. For the same compound, the TGI (HCT-116 colon) was > 100 µM, the TGI (U251 CNS) was > 100 µM and the TGI (LOX IMVI melanoma) was > 100 µM. For the same compound, the TGI (NCI/ADR-RES ovarian) was > 100 µM, the TGI (SN12C renal) was > 100 µM and the TGI (A549 NSCLC) was > 100 µM. For the same compound, the TGI (MDA-MB-435) was > 100 µM, the TGI (DU-145 prostate) was > 100 µM and the TGI (K-562 leukemia) was > 100 µM. For the same compound, the TGI (OVCAR-3 ovarian) was > 100 µM, the TGI (UACC-257 melanoma) was > 100 µM and the TGI (NCI-H522 lung) was > 100 µM. For the same compound, the TGI (SK-MEL-28 melanoma) was > 100 µM, the TGI (RXF 393 renal) was > 100 µM and the TGI (KM12 colon) was > 100 µM. For the same compound, the TGI (SNB-19 CNS) was > 100 µM, the TGI (NCI-H460 lung) was > 100 µM and the TGI (T-47D breast) was > 100 µM. The TGI (MOLT-4 leukemia) was > 100 µM, the TGI (HT29 colon) was > 100 µM and the TGI (EKVX NSCLC) was > 100 µM. The TGI (SF-295 CNS) was > 100 µM, the TGI (HL-60(TB) leukemia) was > 100 µM and the TGI (NCI-H226 lung) was > 100 µM. The TGI (MCF7 breast) was > 100 µM, the TGI (UACC-62 melanoma) was > 100 µM and the TGI (IGROV1 ovarian) was > 100 µM. For the same compound, the TGI (MDA-MB-231 breast) was > 100 µM, the TGI (HOP-92 NSCLC) was > 100 µM and the TGI (SW-620 colon) was > 100 µM. The TGI (OVCAR-4 ovarian) was > 100 µM, the TGI (786-0 renal) was > 100 µM and the TGI (SF-268 CNS) was > 100 µM. For the same compound, the TGI (OVCAR-5 ovarian) was > 100 µM, the TGI (HCC-2998 colon) was 35 µM and the TGI (BT-549 breast) was > 100 µM. The TGI (CAKI-1 renal) was > 100 µM, the TGI (RPMI-8226 leukemia) was 83 µM and the TGI (UO-31 renal) was > 100 µM. For the same compound, the TGI (PC-3 prostate) was > 100 µM, the TGI (CCRF-CEM leukemia) was > 100 µM and the TGI (SK-MEL-5 melanoma) was > 100 µM. The TGI (MDA-N) was > 100 µM, the TGI (NCI-H23 lung) was > 100 µM and the TGI (SK-OV-3 ovarian) was > 100 µM. The TGI (COLO 205 colon) was 36.9 µM and the TGI (A498 renal) was > 100 µM.

`COC(=O)c1cc(=O)[nH]c(=O)[nH]1` was tested, and the TGI (HCT-15 colon) was > 100 µM, the TGI (ACHN renal) was > 100 µM and the TGI (MALME-3M melanoma) was > 100 µM. For the same compound, the TGI (HOP-62 NSCLC) was > 100 µM, the TGI (OVCAR-8 ovarian) was > 100 µM and the TGI (TK-10 renal) was > 100 µM. The TGI (M14 melanoma) was > 100 µM, the TGI (SNB-75 CNS) was > 100 µM and the TGI (HCT-116 colon) was > 100 µM. The TGI (U251 CNS) was > 100 µM, the TGI (LOX IMVI melanoma) was > 100 µM and the TGI (NCI/ADR-RES ovarian) was > 100 µM. For the same compound, the TGI (SN12C renal) was > 100 µM, the TGI (A549 NSCLC) was > 100 µM and the TGI (SR leukemia) was > 100 µM. For the same compound, the TGI (MDA-MB-435) was > 100 µM, the TGI (DU-145 prostate) was > 100 µM and the TGI (K-562 leukemia) was > 100 µM. For the same compound, the TGI (OVCAR-3 ovarian) was > 100 µM, the TGI (UACC-257 melanoma) was > 100 µM and the TGI (NCI-H522 lung) was > 100 µM. For the same compound, the TGI (SK-MEL-28 melanoma) was > 100 µM, the TGI (RXF 393 renal) was > 100 µM and the TGI (SNB-19 CNS) was > 100 µM. For the same compound, the TGI (NCI-H460 lung) was > 100 µM, the TGI (T-47D breast) was > 100 µM and the TGI (MOLT-4 leukemia) was > 100 µM. The TGI (HT29 colon) was > 100 µM, the TGI (EKVX NSCLC) was > 100 µM and the TGI (SF-295 CNS) was > 100 µM. For the same compound, the TGI (HL-60(TB) leukemia) was > 100 µM, the TGI (NCI-H226 lung) was > 100 µM and the TGI (UACC-62 melanoma) was > 100 µM. The TGI (IGROV1 ovarian) was > 100 µM, the TGI (SK-MEL-2 melanoma) was > 100 µM and the TGI (MDA-MB-231 breast) was > 100 µM. For the same compound, the TGI (HOP-92 NSCLC) was > 100 µM, the TGI (SW-620 colon) was > 100 µM and the TGI (OVCAR-4 ovarian) was > 100 µM. For the same compound, the TGI (786-0 renal) was > 100 µM, the TGI (SF-268 CNS) was > 100 µM and the TGI (OVCAR-5 ovarian) was > 100 µM. For the same compound, the TGI (BT-549 breast) was > 100 µM, the TGI (CAKI-1 renal) was > 100 µM and the TGI (UO-31 renal) was > 100 µM. For the same compound, the TGI (PC-3 prostate) was > 100 µM, the TGI (SK-MEL-5 melanoma) was > 100 µM and the TGI (MDA-N) was > 100 µM. The TGI (NCI-H23 lung) was > 100 µM and the TGI (A498 renal) was > 100 µM.
